Assay results: patent US4605641A, “Synthetic vasoactive intestinal peptide analogs” (Hoffmann-La Roche Inc., priority 1984, dated 1986)

Key:
[1] = system: guinea pig trachea smooth muscle; experiment: Bronchodilator (relaxant) effect on isolated guinea pig tracheal rings; assay type: cell-based; details: for Relative Potency: guinea pig trachea, relative to VIP = 100%; for EC50: guinea pig tracheal rings, relaxation as % of maximum response to VIP 10^-6 M, three tissues pooled, linear regression, read-out: EC50 (M), agonist activity, bronchodilator effect
From the text: The bronchodilatory effect of VIP analogs was studied in a model utilizing guinea pig trachea. Wasserman, M. A. et al. "Comparative In Vitro Tracheal Relaxant Effects of Porcine and Hen VIP" in Vasoactive Intestinal Peptide ed. Said, S.I., Raven Press (New York, 1982).
All tissues were taken from male albino guinea pigs weighing 400-600 g, anesthetized with urethane 2 g/kg i.p. After exsanguination the trachea was removed and divided into four ring segments (3 mm length). Each ring was suspended by two 30 guage stainless steel wires in a 10 ml jacket tissue bath and attached via 4-0 silk thread to a Grass force displacement transducer (model FT03C, Grass Instrument Co., Quincy, MA), for isometric recording of tension. The smooth muscle was bathed in modified Krebs solution of the following composition: NaCl, 120 mM; KCl, 4.7 mM; CaCl2, 2.5 mM; MgSO4.7H2 O; 1.2 mM; NaHCO3, 25 mM; KH2 PO4 monobasic, 1.2 mM; and dextrose, 10 mM. Tissue baths were maintained at 37.5° C. and constantly bubbled with 95% O2 and 5% CO2. Responses were recorded on an 8 channel and 4 channel Hewlett-Packard (model 7702B and 7754A, respectively) recorder (Hewlett Packard, Paramus, NJ). Tracheal rings were placed under a resting tension of 1.5 g which was determined to be at or near optimal in preliminary experiments. Frequent readjustments of tension were required during the 60 min. stabilization period which followed. Tissues were rinsed at 15 min. intervals.
(§1) Cumulative concentration response curves were obtained for each tissue by successive […] in the bath concentration of VIP or potential VIP agonists according to the method of VanRossum J. M., Arch. Int Pharmacodyn, 143, 299-330 (1963). Only one cummulative dose response curve was obtained on a single piece of tissue. To minimize variability between tissues, relaxant responses are expressed as a percentage of the maximum response obtainable to VIP (10^-6 M=100%) added at the end of the concentration response curve. Responses obtained from three tissues were pooled and EC50 values were determined by linear regression.

[2] = system: Human Bronchial Smooth Muscle; experiment: Relaxation of isolated human bronchial smooth muscle rings; assay type: cell-based; details: for Rel. Potency: human bronchial smooth muscle, relative to VIP (1-28) = 100%
Protocol: Human bronchial smooth muscle or intra-pulmonary arteries were obtained from surgical section or autopsy from Overlook Hospital, Summit, N.J. Airway or vascular rings were suspended by two 30 gauge stainless steel wires in a 10 ml jacket tissue bath and attached via 4-0 silk thread to a Grass forcer displacement transducer (model FT030C, Grass Instrument Co., Quincy, MA), for isometric recording of tension. The smooth muscle was bathed in modified Kreb's solution of the following composition: NaCl, 120 mM; KCl, 4.7 mM; CaCL2, 2.5 mM; MgSO4.7H2 O; 1.2 mM; NaHCO3, 25 mM; KH2 PO4 monobasic, 1.2 mM; and dextrose, 10 mM. Tissue baths were maintained at 37.5° C. and constantly bubbled with 95% O2 and 5% CO2. Responses were recorded on a 8 channel and 4 channel Hewlett-Packard (model 7702B and 7754A, respectively) recorder (Hewlett Packard, Paramus, NJ). All tissues were placed under a resting tension (airway, 1.5 g; vascular, 1 g) which was determined to be near optimal in preliminary experiments. Frequent readjustments of tension were required during the 120-180 min. stabilization period which followed. Tissues were rinsed at 15 min. intervals. Vascular tissues were primed once with phenylephrine (10^-5 M) and washed for an additional hour. Steady state contractions of vacular tissues were obtained with phenylephrine (10^-5 M) while airway tissues were precontracted with histamine (3×10^-4 M).
as §1, with “noted above.” for “J. M., Arch. Int Pharmacodyn, 143, 299-330 (1963).”, “cumulative” for “cummulative”, “were” for “are”, “papaverine (vascular, 10^-4 M=100%) or isoproterenol (airway, 10^-4” for “VIP (10^-6”, “curve. […]” for “curve.”, “four” for “three”

Structure (SMILES): CCCC[C@H](NC(=O)[C@H](CCC(N)=O)NC(=O)[C@H](CCCCN)NC(=O)[C@H](CCCNC(=N)N)NC(=O)[C@H](CC(C)C)NC(=O)[C@H](CCCNC(=N)N)NC(=O)[C@@H](NC(=O)[C@H](Cc1ccc(O)cc1)NC(=O)[C@H](CC(N)=O)NC(=O)[C@H](CC(=O)O)NC(=O)[C@@H](NC(=O)[C@H](Cc1ccccc1)NC(=O)[C@@H](NC(=O)[C@H](C)NC(=O)[C@H](CC(=O)O)NC(=O)[C@H](CO)NC(=O)[C@H](Cc1c[nH]cn1)NC(C)=O)C(C)C)[C@@H](C)O)[C@@H](C)O)C(=O)N[C@@H](C)C(=O)N[C@H](C(=O)N[C@@H](CCCCN)C(=O)N[C@@H](CCCCN)C(=O)N[C@@H](Cc1ccc(O)cc1)C(=O)N[C@@H](CC(C)C)C(=O)N[C@@H](CC(N)=O)C(=O)N[C@@H](CO)C(=O)N[C@H](C(=O)N[C@@H](CC(C)C)C(=O)N[C@@H](CC(N)=O)C(N)=O)[C@@H](C)CC)C(C)C [Ac--(Nle^17)--VIP, Ac-(Nle^17)VIP]
- Relative Potency [1]: 111%
- EC50 [1]: 9e-09 M
- Rel. Potency [2]: 2800%

Structure (SMILES): CC[C@H](C)[C@H](NC(=O)[C@H](CO)NC(=O)[C@H](CC(N)=O)NC(=O)[C@H](CC(C)C)NC(=O)[C@H](Cc1ccc(O)cc1)NC(=O)[C@H](CCCCN)NC(=O)[C@H](CCCCN)NC(=O)[C@@H](NC(=O)[C@H](C)NC(=O)[C@H](CCSC)NC(=O)[C@H](CCC(N)=O)NC(=O)[C@H](CCCCN)NC(=O)[C@H](CCCNC(=N)N)NC(=O)[C@H](CC(C)C)NC(=O)[C@H](CCCNC(=N)N)NC(=O)[C@@H](NC(=O)[C@H](Cc1ccc(O)cc1)NC(=O)[C@H](CC(N)=O)NC(=O)[C@H](CC(=O)O)NC(=O)[C@@H](NC(=O)[C@H](Cc1ccccc1)NC(=O)[C@@H](NC(=O)[C@H](C)NC(=O)[C@H](CC(=O)O)NC(=O)[C@H](CO)NC(=O)[C@@H](N)Cc1c[nH]cn1)C(C)C)[C@@H](C)O)[C@@H](C)O)C(C)C)C(=O)N[C@@H](CC(C)C)C(=O)N[C@@H](CC(N)=O)C(N)=O [VIP, Vasoactive intestinal peptide]
- Relative Potency [1]: 100%
- EC50 [1]: 1e-08 M
- Rel. Potency [2]: 100%
- Bronchodilator / relaxant activity (in words) ([2]; human in vitro tissue, summary of Table II): weak relaxant
